# Measurements published in patent US4450163A, “Process for the preparation of 1,3,7-trialkyl xanthines and di(3,7-dimethylxanthin-1-yl)methane as a medicament” (Societe d'Assistance Technique pour Produits Nestle S.A., priority 1979, dated 1984).
# Experiments:
# [1] = tested on: ear-swelling in mice in response to antigenic challenge; experiment: dermal delayed hypersensitivity test (oxazolone), inhibition of ear-swelling in mice; type: in vivo; conditions: oxazolone sensitized, 150 mg/kg b.w. i.p. at challenge, ear thickness 24 hours after challenge, compared to control animals
# Procedure: Immunosuppression of the compound of Example 25 was compared with cyclophosphamide, a known immunosuppressant drug, as an inhibitor of ear-swelling in mice in response to antigenic challenge in a dermal delayed hypersensitivity test at 150 mg/kg body weight.
# The test was performed as is described e.g. by G. L. Asherton and W. Ptak in Immunology 15, 405 (1968). Mice were immunized by applying on the abdomen skin 0.1 ml of a 3% oxazolone solution. 7 days after sensitization, they were challenged by painting the same solution on the ear skin. Part of the mice were simultaneously administered i.p. the immunosuppressant drug of Example 25 or cyclophosphamide. The remaining animals served as controls. 24 hours after challenge, the increase in ear thickness was measured. Immunosuppressant activity was expressed in % of inhibition of ear-swelling in drug-administered mice compared to control animals.
# [2] = pharmacological studies (immunosuppressant activity, adverse effects); type: in vivo; conditions: in words
SMILES,% inhib. of ear-swelling [1],immunosuppressant activity [2],toxic adverse effect [2]
"O=P1(N(CCCl)CCCl)NCCCO1 (stereo not shown) [Cyclophosphamide, reference compound]",73%,–,–
"Cn1cnc2c1c(=O)n(Cn1c(=O)c3c(ncn3C)n(C)c1=O)c(=O)n2C [Example 25, di(3,7-dimethylxanthin-1-yl)methane]",55%,has an immunosuppressant activity,no toxic adverse effect
